In PubChem BioAssay AID489035 (Sanford-Burnham Center for Chemical Genomics, 2010):
Active and inactive are the calls of the source. How the calls were made is not given here.

Each compound was assayed on Jurkat NF-kB reporter, TCR-induced, luciferase luminescence (assay: inhibitors of TCR-driven NF-kB activation, dose response, Jurkat cells, luminescence (AID 489035)).

Row | SMILES | IC50
1 | COC(=O)[C@]12OC[C@]34C([C@@H](O)[C@@H]1O)[C@]1(C)CC(=O)C(O)=C(C)[C@@H]1C[C@H]3OC(=O)[C@H](O)[C@@H]24 (stereo partly specified) | < 0.16 µM
2 | CCCSc1nnc(Sc2nnnn2-c2ccccc2)s1 | 2.09 µM
3 | COc1cc(C2C(C#N)=C(N)Oc3cc4c(cc32)OCO4)cc(OC)c1OC (stereo unspecified) | 34.1 µM (inactive)
4 | O=C(NC(Nc1nc2ccc([N+](=O)[O-])cc2s1)(C(F)(F)F)C(F)(F)F)c1ccccc1 | > 80 µM (inactive)
5 | Cc1ccc2nc(C)c(CN3CCN(c4ccc([N+](=O)[O-])cc4Cl)CC3)n2c1 | 26.6 µM (inactive)
6 | COc1ccccc1NC(=O)C1=C(C)Nc2nc3ccccc3n2C1c1cccs1 (stereo unspecified) | 52.3 µM (inactive)
